Patent US20260242391A1 (priority 2023, published 2026)
pEC50, pIC50: −log10 of the molar value.

Columns and labels:
in vitro = settings: human
HL-60 = HL-60 differentiation potency; type: cell-based; settings: Homo sapiens

pIC50 (in vitro)	pEC50 (HL-60)	SMILES
4.72	6.50	C[C@H]1[C@@H](OC[C@]2(F)CC[C@H](C(=O)O)CC2)O[C@@H]2O[C@@]3(C)CC[C@H]4[C@H](C)CC[C@@H]1[C@@]24OO3 [Compound 140, (1S,4r)-4-fluoro-4-((((3R,5aS,6R,8aS, 9R,10S,12R, 12aR)-3,6,9-trimethyldeca-hydro-12H-3,12-epoxy[1,2]dioxepino[4,3-i]isochromen-10-yl)oxy)methyl) cyclohexane-1-carboxylic acid]
< 5.00	7.02	C[C@H]1[C@@H](Oc2ccc(CC(=O)O)cc2Cl)O[C@@H]2O[C@@]3(C)CC[C@H]4[C@H](C)CC[C@@H]1[C@@]24OO3 [Compound 16, 2-(3-chloro-4-(((3R,5aS,6R,8aS, 9R,10S,12R, 12aR)-3,6,9-trimethyldeca-hydro-12H-3,12-epoxy[1,2]dioxepino[4,3-i]isochromen-10-yl)oxy)phenyl) acetic acid]
6.45	6.46	CNC(=O)CCN[C@@H]1O[C@@H]2O[C@@]3(C)CC[C@H]4[C@H](C)CC[C@@H]([C@H]1C)[C@@]24OO3 [Compound 95, N-methyl-3-(((3R,5aS,6R,8aS, 9R,10R,12R, 12aR)-3,6,9-trimethyldeca-hydro-12H-3,12-epoxy[1,2]dioxepino[4,3-i]isochromen-10-yl)amino) propanamide]
< 4.70	4.76	C[C@H]1[C@H](OCc2cccc(C(=O)O)c2)O[C@@H]2O[C@@]3(C)CC[C@H]4[C@H](C)CC[C@@H]1[C@@]24OO3 [Compound 91, 3-((((3R,5aS,6R,8aS, 9R,10R,12R, 12aR)-3,6,9-trimethyldeca-hydro-12H-3,12-epoxy[1,2]dioxepino[4,3-i]isochromen-10-yl)oxy)methyl) benzoic acid]
< 4.70	< 4.70	C[C@H]1[C@@H](OCC(=O)N2CC[C@@H](C(=O)O)C2)O[C@@H]2O[C@@]3(C)CC[C@H]4[C@H](C)CC[C@@H]1[C@@]24OO3 [Compound 161, (R)-1-(2-(((3R,5aS,6R,8aS, 9R,10S,12R, 12aR)-3,6,9-trimethyldeca-hydro-12H-3,12-epoxy[1,2]dioxepino[4,3-i]isochromen-10-yl)oxy)acetyl) pyrrolidine-3-carboxylic acid]
7.30	7.27	C[C@H]1[C@H](OCc2ccc3c(c2)OC(F)(F)O3)O[C@@H]2O[C@@]3(C)CC[C@H]4[C@H](C)CC[C@@H]1[C@@]24OO3 [Compound 6, (3R,5aS,6R,8aS, 9R,10R,12R, 12aR)-10-((2,2-difluorobenzo [d][1,3]dioxol-5-yl)methoxy)-3,6,9-trimethyldeca-hydro-12H-3,12-epoxy[1,2] dioxepino[4,3-i] isochromene]
6.57	6.89	C[C@H]1[C@@H](OCc2ccc(B(O)O)cc2)O[C@@H]2O[C@@]3(C)CC[C@H]4[C@H](C)CC[C@@H]1[C@@]24OO3 [Compound 169, (4-((((3R,5aS,6R,8aS, 9R,10S,12R, 12aR)-3,6,9-trimethyldeca-hydro-12H-3,12-epoxy[1,2]dioxepino[4,3-i]isochromen-10-yl)oxy)methyl)phenyl)boronic acid]
< 4.70	6.49	C[C@H]1[C@@H](OCc2ccc(C(=O)O)c(F)c2F)O[C@@H]2O[C@@]3(C)CC[C@H]4[C@H](C)CC[C@@H]1[C@@]24OO3 [Compound 31, 2,3-difluoro-4-((((3R,5aS,6R, 8aS,9R,10S,12R, 12aR)-3,6,9-trimethyldeca-hydro-12H-3,12-epoxy[1,2]dioxepino[4,3-i]isochromen-10-yl)oxy)methyl) benzoic acid]
< 4.70	< 4.70	C[C@H]1[C@H](OCC(=O)N2CC[C@@H](C(=O)O)C2)O[C@@H]2O[C@@]3(C)CC[C@H]4[C@H](C)CC[C@@H]1[C@@]24OO3 [Compound 163, (R)-1-(2-(((3R,5aS,6R,8aS, 9R,10R,12R, 12aR)-3,6,9-trimethyldeca-hydro-12H-3,12-epoxy[1,2]dioxepino[4,3-i]isochromen-10-yl)oxy)acetyl) pyrrolidine-3-carboxylic acid]
< 4.70	< 4.70	C[C@H]1[C@H](N(C)C23CC(C(=O)O)(C2)C3)O[C@@H]2O[C@@]3(C)CC[C@H]4[C@H](C)CC[C@@H]1[C@@]24OO3 [Compound 103, 3-(methyl((3R,5aS, 6R,8aS,9R,10R, 12R,12aR)-3,6,9-trimethyldeca-hydro-12H-3,12-epoxy[1,2]dioxepino[4,3-i]isochromen-10-yl)amino)bicyclo [1.1.1]pentane-1-carboxylic acid]
5.08	6.93	C[C@H]1[C@@H](Oc2cccc(CC(=O)O)c2)O[C@@H]2O[C@@]3(C)CC[C@H]4[C@H](C)CC[C@@H]1[C@@]24OO3 [Compound 20, 2-(3-(((3R,5aS,6R, 8aS,9R,10S,12R, 12aR)-3,6,9-trimethyldeca-hydro-12H-3,12-epoxy[1,2]dioxepino[4,3-i]isochromen-10-yl)oxy)phenyl) acetic acid]
7.50	7.46	C[C@H]1[C@@H](Oc2ccc(-c3nn[nH]n3)cc2)O[C@@H]2O[C@@]3(C)CC[C@H]4[C@H](C)CC[C@@H]1[C@@]24OO3 [Compound 73, 5-(4-(((3R,5aS,6R, 8aS,9R,10S,12R, 12aR)-3,6,9-trimethyldeca-hydro-12H-3,12-epoxy[1,2]dioxepino[4,3-i]isochromen-10-yl)oxy)phenyl)-2H-tetrazole]
6.96	7.14	C[C@H]1[C@@H](OC(=O)Cn2ccc(C(F)(F)F)n2)O[C@@H]2O[C@@]3(C)CC[C@H]4[C@H](C)CC[C@@H]1[C@@]24OO3 [Compound 145, (3R,5aS,6R,8aS, 9R,10R,12R, 12aR)-3,6,9-trimethyldeca-hydro-12H-3,12-epoxy[1,2] dioxepino[4,3-i] isochromen-10-yl 2-(3-(trifluoro-methyl)-1H-pyrazol-1-yl)acetate]
< 4.70	7.03	C[C@H]1[C@H](Oc2ccc(CC(=O)O)cc2)O[C@@H]2O[C@@]3(C)CC[C@H]4[C@H](C)CC[C@@H]1[C@@]24OO3 [Compound 12, 2-(4-(((3R,5aS, 6R,8aS,9R,10R, 12R,12aR)-3,6,9-trimethyldeca-hydro-12H-3,12-epoxy[1,2]dioxepino[4,3-i]isochromen-10-yl)oxy)phenyl) acetic acid]
< 4.70	< 4.70	C[C@H]1[C@@H](CCN2CC(C(=O)O)C2)O[C@@H]2O[C@@]3(C)CC[C@H]4[C@H](C)CC[C@@H]1[C@@]24OO3 [Compound 68, 1-(2-((3R,5aS,6R,8aS, 9R,10R,12R, 12aR)-3,6,9-trimethyldeca-hydro-12H-3,12-epoxy[1,2]dioxepino[4,3-i]isochromen-10-yl)ethyl) azetidine-3-carboxylic acid]
5.61	7.54	C[C@H]1[C@@H](Oc2ccc(C3(C(=O)O)CC3)cc2)O[C@@H]2O[C@@]3(C)CC[C@H]4[C@H](C)CC[C@@H]1[C@@]24OO3 [Compound 124, 1-(4-(((3R,5aS,6R,8aS, 9R,10S,12R, 12aR)-3,6,9-trimethyldeca-hydro-12H-3,12-epoxy[1,2]dioxepino[4,3-i]isochromen-10-yl)oxy)phenyl) cyclopropane-1-carboxylic acid]
